Series [1] has as its target T1, Protein deacetylase HDAC6 (Homo sapiens, UniProt Q9UBN7).
T1 sequence (Q9UBN7 whole entry): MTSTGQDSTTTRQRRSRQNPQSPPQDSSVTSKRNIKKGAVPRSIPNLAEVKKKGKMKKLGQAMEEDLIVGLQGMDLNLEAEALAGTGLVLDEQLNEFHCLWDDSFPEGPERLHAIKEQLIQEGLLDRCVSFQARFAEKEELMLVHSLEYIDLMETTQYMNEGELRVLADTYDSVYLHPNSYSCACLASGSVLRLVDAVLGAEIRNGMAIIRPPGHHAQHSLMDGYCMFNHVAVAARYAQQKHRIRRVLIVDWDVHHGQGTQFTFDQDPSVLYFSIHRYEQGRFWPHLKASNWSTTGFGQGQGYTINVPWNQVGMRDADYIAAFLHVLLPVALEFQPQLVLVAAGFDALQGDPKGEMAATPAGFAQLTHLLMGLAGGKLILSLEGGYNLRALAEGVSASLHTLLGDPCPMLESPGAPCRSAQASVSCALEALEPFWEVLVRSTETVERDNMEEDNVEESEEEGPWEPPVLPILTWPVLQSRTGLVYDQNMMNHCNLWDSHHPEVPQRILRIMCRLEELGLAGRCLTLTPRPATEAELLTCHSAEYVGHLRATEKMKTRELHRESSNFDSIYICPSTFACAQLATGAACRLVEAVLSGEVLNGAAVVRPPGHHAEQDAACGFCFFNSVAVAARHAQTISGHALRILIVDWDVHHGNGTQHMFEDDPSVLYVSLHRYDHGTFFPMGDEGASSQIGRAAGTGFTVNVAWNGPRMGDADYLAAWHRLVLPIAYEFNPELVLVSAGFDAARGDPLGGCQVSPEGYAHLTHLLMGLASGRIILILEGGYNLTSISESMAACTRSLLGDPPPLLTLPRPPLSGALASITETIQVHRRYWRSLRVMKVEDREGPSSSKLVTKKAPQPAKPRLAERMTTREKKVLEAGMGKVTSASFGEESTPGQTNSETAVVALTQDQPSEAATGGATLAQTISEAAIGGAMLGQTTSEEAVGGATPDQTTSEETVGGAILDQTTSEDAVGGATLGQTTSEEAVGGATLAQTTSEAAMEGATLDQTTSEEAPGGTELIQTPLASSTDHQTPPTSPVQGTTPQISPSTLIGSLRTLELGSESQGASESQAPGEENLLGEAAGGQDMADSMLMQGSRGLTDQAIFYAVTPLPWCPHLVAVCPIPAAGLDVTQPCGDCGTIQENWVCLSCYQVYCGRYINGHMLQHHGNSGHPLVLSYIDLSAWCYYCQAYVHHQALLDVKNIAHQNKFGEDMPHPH
In words: Inhibition of human full-length recombinant HDAC6 incubated for 2 hrs by fluorescence based analysis.

Series [2] concerns the target T2, Histone deacetylase 1 (Homo sapiens, UniProt Q13547). In words: Inhibition of human full-length recombinant HDAC1 incubated for 2 hrs by fluorescence based analysis.
The nature of series [3]: Metabolic stability in mouse liver microsomes assessed as half life. Format: ADME, Microsome. (Liver microsomes are vesicles of endoplasmic reticulum, rich in cytochrome P450 enzymes.)
The nature of series [4]: Stability in mouse plasma assessed as half life. Format: ADME, cell-free.
For a further series, the system named is K562. The experiment in a line: Antiproliferative activity against human K562 cells assessed as inhibition of cell growth by MTT assay. Format: functional, cell-based. In general terms: Tetrazolium dyes change colour on reduction, which living cells bring about.
A further series addresses Histone deacetylase. In kind it is cell-based, Homo sapiens. The following applies: hela.
Another series concerns MCF7. The experiment in a line: Antiproliferative activity against human MCF7 cells assessed as inhibition of cell growth by MTT assay. Format: functional, cell-based.
The next series deals with HEK-293T. The experiment in a line: Antiproliferative activity against HEK293T cells assessed as inhibition of cell growth by MTT assay. The following applies: Homo sapiens. Format: functional, cell-based.
In a further series the test system is HeLa. In words: Antiproliferative activity against human HeLa cells assessed as inhibition of cell growth by MTT assay. Format: functional, cell-based.
In a further series the target is T3, Histone deacetylase 8 (Homo sapiens, UniProt Q9BY41).
T3 sequence (Q9BY41 whole entry): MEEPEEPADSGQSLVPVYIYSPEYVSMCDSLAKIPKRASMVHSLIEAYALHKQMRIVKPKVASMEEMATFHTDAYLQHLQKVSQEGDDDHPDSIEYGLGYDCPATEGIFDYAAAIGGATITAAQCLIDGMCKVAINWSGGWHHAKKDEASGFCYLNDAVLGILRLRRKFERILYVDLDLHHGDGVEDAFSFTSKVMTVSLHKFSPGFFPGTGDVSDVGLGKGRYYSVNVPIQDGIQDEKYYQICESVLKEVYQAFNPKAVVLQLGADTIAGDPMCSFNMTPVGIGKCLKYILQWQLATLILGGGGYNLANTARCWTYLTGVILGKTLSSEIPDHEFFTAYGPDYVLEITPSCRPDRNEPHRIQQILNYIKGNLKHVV
The experiment in a line: Inhibition of human recombinant HDAC8.

The next series concerns A2780. The experiment in a line: Antiproliferative activity against human A2780 cells assessed as cell growth inhibition. Format: functional, cell-based.
Series [5] concerns the target T2, Histone deacetylase 1. In words: Inhibition of HDAC1 (unknown origin). The following applies: pooled result: one value given for 7 cell lines, strains, targets or settings.
For another series, the system named is Toxoplasma gondii. In words: Antiparasitic activity against Toxoplasma gondii assessed as parasitic growth inhibition. Format: functional, organism-based.
For series [6], the target named is T4, Polyamine deacetylase HDAC10 (Homo sapiens, UniProt Q969S8).
T4 sequence (Q969S8 whole entry): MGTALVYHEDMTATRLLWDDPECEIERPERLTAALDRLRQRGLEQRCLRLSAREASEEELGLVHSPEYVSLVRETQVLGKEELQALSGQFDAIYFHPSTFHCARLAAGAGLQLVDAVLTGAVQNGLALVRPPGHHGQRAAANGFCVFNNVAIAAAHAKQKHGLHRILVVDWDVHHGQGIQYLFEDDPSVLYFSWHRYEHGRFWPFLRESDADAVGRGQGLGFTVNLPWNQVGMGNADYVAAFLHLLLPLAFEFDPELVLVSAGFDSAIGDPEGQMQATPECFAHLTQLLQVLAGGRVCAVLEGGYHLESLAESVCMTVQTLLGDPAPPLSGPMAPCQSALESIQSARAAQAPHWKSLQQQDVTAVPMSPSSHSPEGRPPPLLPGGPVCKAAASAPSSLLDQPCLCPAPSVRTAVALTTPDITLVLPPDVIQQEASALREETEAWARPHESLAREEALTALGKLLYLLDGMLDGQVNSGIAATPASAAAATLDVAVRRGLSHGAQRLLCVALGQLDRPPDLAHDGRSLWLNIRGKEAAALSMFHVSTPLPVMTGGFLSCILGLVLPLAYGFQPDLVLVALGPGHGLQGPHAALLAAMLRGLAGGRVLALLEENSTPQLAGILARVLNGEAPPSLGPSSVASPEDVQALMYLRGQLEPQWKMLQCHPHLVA
The experiment in a line: Inhibition of human recombinant HDAC10.

Series [7] addresses T1, Protein deacetylase HDAC6. The experiment in a line: Inhibition of human recombinant HDAC6.
A further series has as its target Histone deacetylase 5 (Homo sapiens, UniProt Q9UQL6). In words: Inhibition of human recombinant HDAC5.
The next series has as its target T5, Histone deacetylase 11 (Homo sapiens, UniProt Q96DB2).
T5 sequence (Q96DB2 whole entry): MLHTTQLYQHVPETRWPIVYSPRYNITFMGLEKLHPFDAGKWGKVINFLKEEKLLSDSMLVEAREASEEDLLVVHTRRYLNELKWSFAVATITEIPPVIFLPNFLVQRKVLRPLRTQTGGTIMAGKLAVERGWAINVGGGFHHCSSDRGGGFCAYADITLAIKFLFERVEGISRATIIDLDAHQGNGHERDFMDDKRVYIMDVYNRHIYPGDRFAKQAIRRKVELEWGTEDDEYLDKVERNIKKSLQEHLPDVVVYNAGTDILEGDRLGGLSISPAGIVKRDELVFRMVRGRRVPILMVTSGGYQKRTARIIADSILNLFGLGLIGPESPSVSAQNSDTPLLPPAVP
The experiment in a line: Inhibition of human recombinant HDAC11.

The target of a further series is Histone deacetylase 4 (Homo sapiens, UniProt P56524). In words: Inhibition of human recombinant HDAC4.
In another series the target is Histone deacetylase 9 (Homo sapiens, UniProt Q9UKV0). The experiment in a line: Inhibition of human recombinant HDAC9.

The structures appear in SMILES notation. pIC50: −log10 of the molar value.

T2 sequence (Q13547 whole entry): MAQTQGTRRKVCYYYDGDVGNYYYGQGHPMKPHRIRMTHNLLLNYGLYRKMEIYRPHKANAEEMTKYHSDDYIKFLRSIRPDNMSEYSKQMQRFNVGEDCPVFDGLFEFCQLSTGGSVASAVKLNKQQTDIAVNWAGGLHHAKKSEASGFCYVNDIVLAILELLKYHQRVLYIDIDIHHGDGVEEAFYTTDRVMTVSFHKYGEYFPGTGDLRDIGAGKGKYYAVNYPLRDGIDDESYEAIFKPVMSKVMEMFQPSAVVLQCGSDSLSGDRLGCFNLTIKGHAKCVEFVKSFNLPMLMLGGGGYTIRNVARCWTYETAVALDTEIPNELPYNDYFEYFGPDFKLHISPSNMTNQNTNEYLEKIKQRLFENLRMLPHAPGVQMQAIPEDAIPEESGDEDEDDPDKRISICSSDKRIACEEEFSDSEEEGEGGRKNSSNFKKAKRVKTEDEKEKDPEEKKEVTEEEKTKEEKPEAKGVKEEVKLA
Histone deacetylase 9, sequence (Q9UKV0 whole entry): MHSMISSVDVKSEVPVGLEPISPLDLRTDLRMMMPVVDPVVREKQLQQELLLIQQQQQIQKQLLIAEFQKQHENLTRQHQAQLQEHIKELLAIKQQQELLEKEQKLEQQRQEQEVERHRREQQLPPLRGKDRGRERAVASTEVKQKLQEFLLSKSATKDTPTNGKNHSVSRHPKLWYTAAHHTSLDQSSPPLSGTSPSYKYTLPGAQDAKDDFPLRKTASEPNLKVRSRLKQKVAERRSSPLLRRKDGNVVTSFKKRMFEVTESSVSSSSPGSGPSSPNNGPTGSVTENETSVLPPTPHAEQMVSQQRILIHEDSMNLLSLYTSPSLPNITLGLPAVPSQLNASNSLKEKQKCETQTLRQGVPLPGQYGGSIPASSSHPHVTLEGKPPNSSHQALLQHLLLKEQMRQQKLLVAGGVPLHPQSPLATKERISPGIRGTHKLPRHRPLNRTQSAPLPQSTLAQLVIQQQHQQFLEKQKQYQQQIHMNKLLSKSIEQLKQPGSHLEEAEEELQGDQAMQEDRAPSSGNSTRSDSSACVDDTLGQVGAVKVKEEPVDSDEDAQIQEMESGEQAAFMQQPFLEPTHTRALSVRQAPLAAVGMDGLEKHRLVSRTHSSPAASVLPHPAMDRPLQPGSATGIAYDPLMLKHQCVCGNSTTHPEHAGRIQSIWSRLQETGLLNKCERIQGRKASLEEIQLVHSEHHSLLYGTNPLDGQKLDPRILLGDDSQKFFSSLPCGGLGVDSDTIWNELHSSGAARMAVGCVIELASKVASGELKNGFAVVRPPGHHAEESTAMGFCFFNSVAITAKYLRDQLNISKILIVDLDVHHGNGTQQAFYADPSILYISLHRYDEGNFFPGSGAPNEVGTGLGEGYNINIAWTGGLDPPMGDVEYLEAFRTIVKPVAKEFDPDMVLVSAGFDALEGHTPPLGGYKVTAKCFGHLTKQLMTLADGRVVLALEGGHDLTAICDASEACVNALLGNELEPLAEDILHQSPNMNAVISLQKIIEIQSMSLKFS
Histone deacetylase 4, sequence (P56524 whole entry): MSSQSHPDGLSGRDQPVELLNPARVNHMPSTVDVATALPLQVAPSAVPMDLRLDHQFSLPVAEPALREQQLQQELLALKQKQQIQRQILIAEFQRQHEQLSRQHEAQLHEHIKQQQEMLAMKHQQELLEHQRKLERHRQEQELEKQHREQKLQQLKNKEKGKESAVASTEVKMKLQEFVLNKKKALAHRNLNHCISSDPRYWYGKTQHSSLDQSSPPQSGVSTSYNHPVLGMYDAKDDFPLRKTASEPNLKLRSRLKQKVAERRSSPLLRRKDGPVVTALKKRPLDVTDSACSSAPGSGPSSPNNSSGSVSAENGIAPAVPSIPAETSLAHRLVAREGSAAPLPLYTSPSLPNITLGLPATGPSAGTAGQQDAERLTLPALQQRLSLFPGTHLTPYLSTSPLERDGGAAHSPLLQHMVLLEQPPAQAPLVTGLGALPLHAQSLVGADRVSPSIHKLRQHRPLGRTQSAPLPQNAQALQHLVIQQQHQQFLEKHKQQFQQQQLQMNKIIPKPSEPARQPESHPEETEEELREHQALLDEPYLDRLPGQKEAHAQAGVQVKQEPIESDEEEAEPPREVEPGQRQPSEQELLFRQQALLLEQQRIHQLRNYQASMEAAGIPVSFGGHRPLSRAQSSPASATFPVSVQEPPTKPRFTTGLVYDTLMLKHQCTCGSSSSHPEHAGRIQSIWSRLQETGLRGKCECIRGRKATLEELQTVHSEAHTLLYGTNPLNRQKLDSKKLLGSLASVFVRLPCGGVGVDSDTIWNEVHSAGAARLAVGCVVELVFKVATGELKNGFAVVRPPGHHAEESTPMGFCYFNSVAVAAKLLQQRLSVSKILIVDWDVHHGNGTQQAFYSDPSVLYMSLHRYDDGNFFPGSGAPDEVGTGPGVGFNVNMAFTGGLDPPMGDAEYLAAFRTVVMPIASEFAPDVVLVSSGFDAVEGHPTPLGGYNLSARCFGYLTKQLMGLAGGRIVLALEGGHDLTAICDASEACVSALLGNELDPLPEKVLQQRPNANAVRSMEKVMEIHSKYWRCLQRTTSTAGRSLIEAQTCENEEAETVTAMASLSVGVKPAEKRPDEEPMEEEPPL
Histone deacetylase 5, sequence (Q9UQL6 whole entry): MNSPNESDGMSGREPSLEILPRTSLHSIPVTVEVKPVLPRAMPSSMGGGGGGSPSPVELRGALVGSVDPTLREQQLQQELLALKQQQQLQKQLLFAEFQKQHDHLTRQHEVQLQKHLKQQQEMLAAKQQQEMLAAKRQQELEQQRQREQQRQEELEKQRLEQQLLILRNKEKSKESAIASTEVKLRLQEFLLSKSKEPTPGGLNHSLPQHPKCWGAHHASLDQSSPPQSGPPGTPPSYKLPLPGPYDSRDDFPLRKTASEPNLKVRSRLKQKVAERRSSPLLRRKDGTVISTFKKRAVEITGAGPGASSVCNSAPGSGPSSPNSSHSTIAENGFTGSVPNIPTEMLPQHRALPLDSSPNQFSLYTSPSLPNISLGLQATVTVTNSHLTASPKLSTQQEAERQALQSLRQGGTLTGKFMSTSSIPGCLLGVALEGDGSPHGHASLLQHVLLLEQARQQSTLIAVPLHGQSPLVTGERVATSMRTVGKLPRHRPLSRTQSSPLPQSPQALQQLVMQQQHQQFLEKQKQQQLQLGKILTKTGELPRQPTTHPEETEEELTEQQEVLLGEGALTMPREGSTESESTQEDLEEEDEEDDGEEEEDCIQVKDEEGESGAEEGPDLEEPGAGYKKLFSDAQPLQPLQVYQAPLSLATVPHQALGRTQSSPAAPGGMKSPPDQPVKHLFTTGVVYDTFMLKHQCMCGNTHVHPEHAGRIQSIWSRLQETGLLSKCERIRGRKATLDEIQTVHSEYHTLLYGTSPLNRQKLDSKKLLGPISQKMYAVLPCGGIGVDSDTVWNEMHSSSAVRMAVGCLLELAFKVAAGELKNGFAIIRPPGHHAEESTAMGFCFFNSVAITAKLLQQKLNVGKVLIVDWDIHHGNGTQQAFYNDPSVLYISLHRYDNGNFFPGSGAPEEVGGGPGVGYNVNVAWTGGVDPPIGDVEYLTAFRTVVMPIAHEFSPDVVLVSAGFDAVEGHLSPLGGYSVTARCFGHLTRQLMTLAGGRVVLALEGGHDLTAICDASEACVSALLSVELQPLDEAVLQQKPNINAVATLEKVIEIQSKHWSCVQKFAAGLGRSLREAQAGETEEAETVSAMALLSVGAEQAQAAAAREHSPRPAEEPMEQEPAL

In the case of `Cc1onc(-c2ccccc2)c1C(=O)NCCCCCCC(=O)NO`, the pIC50 (commonly the IC50 on a negative log10 scale, so that one unit is a factor of ten) in [1] is 6.74; at Histone deacetylase 1 [2] it was 5.52.

In the case of `Nc1ccccc1NC(=O)CCCCCCC(=O)Nc1ccccc1`, the half-life in [3] and in [4] was 1.9 h in each case.

As to `O=C(CCCCCSc1nc[nH]n1)Nc1ccccc1`, the pIC50 in the series on K562, with MCF7, in the series with HEK-293T and with HeLa was 4.96 in each case. In addition, at Histone deacetylase, the IC50 (usually the point on the concentration scale where inhibition reaches its midpoint) turned out to be 8.1 µM.

Regarding `CP(=O)([O-])CCCCCCC(=O)Nc1ccccc1.[Li+]`, on Histone deacetylase, the half-inhibitory concentration (IC50) stood at 8200 µM. The values for the negative-log IC50 (pIC50) at Histone deacetylase 8 and in the series on A2780 were 3.41 and 3.96, respectively.

Turning to `CNC(=O)/C(CCCCCCC(=O)Nc1ccccc1)=N\O`, the pIC50 at Histone deacetylase 1 [5] is 4.66.

Consider `C=C1N[C@@](C)(CC)C(=O)N[C@@H](Cc2ccccc2)C(=O)N2C[C@@H](C)C[C@@H]2C(=O)N[C@H]1CCCCCC(=O)[C@@H](C)O`, for which the pIC50 with Toxoplasma gondii is 7.54.

On to `O=C(CCCCCCC(=O)C(F)(F)F)Nc1ccccc1`, for which the negative logarithm of the IC50 (pIC50) is 4.72 in series [6]; 5.77 on Histone deacetylase 8; 5.66 in series [7]; 7.40 at Histone deacetylase 5; 4.00 at Histone deacetylase 11; 7.40 at Histone deacetylase 4. At Histone deacetylase 9, the pIC50 was 5.23.

Values taken from ChEMBL document CHEMBL5352506, “The Zinc-Binding Group Effect: Lessons from Non-Hydroxamic Acid Vorinostat Analogs” (J Med Chem, 2023).
